From PubChem BioAssay AID272 (DTP/NCI, 2004)
Several values for one entry are separate records, joined by “and”; a condition that tells them apart may be missing. Equal values may be shown once. Inconclusive results are not listed.

Tested on: Lewis lung carcinoma i.m., BDF1 mice, T/C %
Test: NCI In Vivo Anticancer Drug Screen. Data for tumor model Lewis Lung Carcinoma (intramuscular) in B6D2F1 (BDF1) mice
Protocol: The antitumor activity of compounds was measured in mice bearing transplantable tumors. Survival or tumor size were measured and the results are expressed as the measurement made in the treated group (T) divided by the measurement made in the vehicle treated control group (C). The tumor model used in this assay is Lewis Lung Carcinoma (intramuscular) in B6D2F1 (BDF1) mice

With `Cc1[nH]c(=O)[nH]c(=O)c1N(CCF)CCCl` the T/C (endpoint: mean tumor weight (est.), dose: 5.0 mg/kg/injection, schedule: Q01DX011 (ip), vehicle: saline with Tween-80, higher = larger tumour) was 69 % of control, the T/C (endpoint: mean tumor weight (est.), dose: 5.0 mg/kg/injection, schedule: Q01DX011 (ip), vehicle: saline, higher = larger tumour) was 81 % of control and the T/C (endpoint: mean tumor weight (est.), dose: 10.0 mg/kg/injection, schedule: Q01DX011 (ip), vehicle: saline with Tween-80, higher = larger tumour) was 74 % of control. For the same compound, the T/C (endpoint: mean tumor weight (est.), dose: 10.0 mg/kg/injection, schedule: Q01DX011 (ip), vehicle: saline, higher = larger tumour) was 80 % of control, the T/C (endpoint: mean tumor weight (est.), dose: 20.0 mg/kg/injection, schedule: Q01DX011 (ip), vehicle: saline with Tween-80, higher = larger tumour) was 54 % of control and the T/C (endpoint: mean tumor weight (est.), dose: 20.0 mg/kg/injection, schedule: Q01DX011 (ip), vehicle: saline, higher = larger tumour) was 28 % of control. For the same compound, the T/C (endpoint: mean tumor weight (est.), dose: 40.0 mg/kg/injection, schedule: Q01DX011 (ip), vehicle: saline with Tween-80, higher = larger tumour) was 24 % of control, the T/C (endpoint: median survival time, dose: 5.0 mg/kg/injection, schedule: Q01DX011 (ip), vehicle: saline with Tween-80, higher = longer survival) was 101 % of control and the T/C (endpoint: median survival time, dose: 5.0 mg/kg/injection, schedule: Q01DX011 (ip), vehicle: saline, higher = longer survival) was 109 % of control. For the same compound, the T/C (endpoint: median survival time, dose: 10.0 mg/kg/injection, schedule: Q01DX011 (ip), vehicle: saline with Tween-80, higher = longer survival) was 105 % of control, the T/C (endpoint: median survival time, dose: 10.0 mg/kg/injection, schedule: Q01DX011 (ip), vehicle: saline, higher = longer survival) was 119 % of control and the T/C (endpoint: median survival time, dose: 20.0 mg/kg/injection, schedule: Q01DX011 (ip), vehicle: saline with Tween-80, higher = longer survival) was 100 % of control.
For `N=C(N)SCc1c2ccccc2c(CSC(=N)N)c2ccccc12`, the T/C (endpoint: mean tumor weight, dose: 12.5 mg/kg/injection, schedule: Q01DX011 (ip), vehicle: saline, higher = larger tumour) was 94 % of control, the T/C (endpoint: mean tumor weight, dose: 25.0 mg/kg/injection, schedule: Q01DX011 (ip), vehicle: saline, higher = larger tumour) was 84 % of control and the T/C (endpoint: mean tumor weight, dose: 50.0 mg/kg/injection, schedule: Q01DX011 (ip), vehicle: saline, higher = larger tumour) was 52 % of control. For the same compound, the T/C (endpoint: median survival time, dose: 12.5 mg/kg/injection, schedule: Q01DX011 (ip), vehicle: saline, higher = longer survival) was 110 % of control and the T/C (endpoint: median survival time, dose: 25.0 mg/kg/injection, schedule: Q01DX011 (ip), vehicle: saline, higher = longer survival) was 104 % of control.
For `Nc1nc(SCc2ccccc2)c2[nH]cnc2n1`, the T/C (endpoint: mean tumor weight (est.), dose: 0.39 mg/kg/injection, schedule: Q01DX011 (ip), vehicle: saline, higher = larger tumour) was 86 % of control, the T/C (endpoint: mean tumor weight (est.), dose: 0.78 mg/kg/injection, schedule: Q01DX011 (ip), vehicle: saline, higher = larger tumour) was 91 % of control and the T/C (endpoint: mean tumor weight (est.), dose: 1.56 mg/kg/injection, schedule: Q01DX011 (ip), vehicle: saline, higher = larger tumour) was 78 % of control. For the same compound, the T/C (endpoint: mean tumor weight (est.), dose: 6.25 mg/kg/injection, schedule: Q01DX011 (ip), vehicle: saline, higher = larger tumour) was 70 % of control, the T/C (endpoint: mean tumor weight, dose: 0.78 mg/kg/injection, schedule: Q01DX011 (ip), vehicle: Klucel (hydroxypropylcellulose) (HPC), higher = larger tumour) was 105 % of control and the T/C (endpoint: mean tumor weight, dose: 1.56 mg/kg/injection, schedule: Q01DX011 (ip), vehicle: Klucel (hydroxypropylcellulose) (HPC), higher = larger tumour) was 92 % of control. For the same compound, the T/C (endpoint: mean tumor weight, dose: 3.12 mg/kg/injection, schedule: Q01DX011 (ip), vehicle: Klucel (hydroxypropylcellulose) (HPC), higher = larger tumour) was 87 % of control, the T/C (endpoint: median survival time, dose: 0.39 mg/kg/injection, schedule: Q01DX011 (ip), vehicle: saline, higher = longer survival) was 103 % of control and the T/C (endpoint: median survival time, dose: 1.56 mg/kg/injection, schedule: Q01DX011 (ip), vehicle: Klucel (hydroxypropylcellulose) (HPC), higher = longer survival) was 102 % of control. The T/C (endpoint: median survival time, dose: 1.56 mg/kg/injection, schedule: Q01DX011 (ip), vehicle: saline, higher = longer survival) was 96 % of control and the T/C (endpoint: median survival time, dose: 6.25 mg/kg/injection, schedule: Q01DX011 (ip), vehicle: saline, higher = longer survival) was 111 % of control.
For `CN1Cc2c(ccc3c2OCO3)[C@@H]2[C@H](O)Cc3cc4c(cc3[C@@H]21)OCO4`, the T/C (endpoint: mean tumor weight, dose: 62.5 mg/kg/injection, schedule: Q01DX011 (ip), vehicle: saline, higher = larger tumour) was 75 % of control, the T/C (endpoint: mean tumor weight, dose: 125.0 mg/kg/injection, schedule: Q01DX011 (ip), vehicle: saline, higher = larger tumour) was 47 % of control and the T/C (endpoint: mean tumor weight, dose: 500.0 mg/kg/injection, schedule: Q01DX011 (ip), vehicle: saline, higher = larger tumour) was 32 % of control. For the same compound, the T/C (endpoint: median survival time, dose: 62.5 mg/kg/injection, schedule: Q01DX011 (ip), vehicle: saline, higher = longer survival) was 91 % of control, the T/C (endpoint: median survival time, dose: 125.0 mg/kg/injection, schedule: Q01DX011 (ip), vehicle: saline, higher = longer survival) was 95 % of control and the T/C (endpoint: median survival time, dose: 500.0 mg/kg/injection, schedule: Q01DX011 (ip), vehicle: saline, higher = longer survival) was 93 % of control.
For `ClC1(c2ccccc2)c2ccc(Br)cc2-c2cc(Br)ccc21`, the T/C (endpoint: mean tumor weight (est.), dose: 100.0 mg/kg/injection, schedule: Q01DX011 (ip), vehicle: saline, higher = larger tumour) was 53 % of control, the T/C (endpoint: mean tumor weight (est.), dose: 200.0 mg/kg/injection, schedule: Q01DX011 (ip), vehicle: saline, higher = larger tumour) was 40 % of control and the T/C (endpoint: median survival time, dose: 100.0 mg/kg/injection, schedule: Q01DX011 (ip), vehicle: saline, higher = longer survival) was 88 % of control. For the same compound, the T/C (endpoint: median survival time, dose: 200.0 mg/kg/injection, schedule: Q01DX011 (ip), vehicle: saline, higher = longer survival) was 88 % of control.
For `CN1C=c2c3c(ccc2=C2C=CC4C=C5OCOC5=CC4=C21)OCO3` (stereo unspecified), the T/C (endpoint: mean tumor weight (est.), dose: 7.5 mg/kg/injection, schedule: Q01DX011 (ip), vehicle: saline with Tween-80, higher = larger tumour) was 78 % of control, the T/C (endpoint: mean tumor weight (est.), dose: 15.0 mg/kg/injection, schedule: Q01DX011 (ip), vehicle: saline with Tween-80, higher = larger tumour) was 51 % of control and the T/C (endpoint: median survival time, dose: 7.5 mg/kg/injection, schedule: Q01DX011 (ip), vehicle: saline with Tween-80, higher = longer survival) was 122 % of control. For the same compound, the T/C (endpoint: median survival time, dose: 15.0 mg/kg/injection, schedule: Q01DX011 (ip), vehicle: saline with Tween-80, higher = longer survival) was 100 % of control.
`O=NN(CCCl)C(=O)NC1CCCCC1` was tested, and the T/C (endpoint: mean tumor weight, dose: 23.0 mg/kg/injection, schedule: Q01DX001 (sc), vehicle: saline, higher = larger tumour) was 61 % of control, the T/C (endpoint: mean tumor weight, dose: 39.0 mg/kg/injection, schedule: Q01DX001 (sc), vehicle: saline, higher = larger tumour) was 40 % of control and the T/C (endpoint: mean tumor weight, dose: 65.0 mg/kg/injection, schedule: Q01DX001 (sc), vehicle: saline, higher = larger tumour) was 30 % of control. For the same compound, the T/C (endpoint: mean tumor weight, dose: 108.0 mg/kg/injection, schedule: Q01DX001 (sc), vehicle: saline, higher = larger tumour) was 30 % of control, the T/C (endpoint: median survival time, dose: 4.0 mg/kg/injection, schedule: Q01DX011 (ip), vehicle: saline + alcohol, higher = longer survival) was 92 % of control and the T/C (endpoint: median survival time, dose: 4.0 mg/kg/injection, schedule: Q01DX011 (ip), vehicle: saline with Tween-80, higher = longer survival) was 105 % of control. The T/C (endpoint: median survival time, dose: 8.0 mg/kg/injection, schedule: Q01DX011 (ip), vehicle: saline + alcohol, higher = longer survival) was 92 % of control, the T/C (endpoint: median survival time, dose: 14.0 mg/kg/injection, schedule: Q01DX001 (ip), vehicle: saline, higher = longer survival) was 108 % of control and the T/C (endpoint: median survival time, dose: 16.0 mg/kg/injection, schedule: Q01DX012 (ip), vehicle: saline + alcohol, higher = longer survival) was 87 % of control. For the same compound, the T/C (endpoint: median survival time, dose: 23.0 mg/kg/injection, schedule: Q01DX001 (ip), vehicle: saline, higher = longer survival) was 121 % of control, the T/C (endpoint: median survival time, dose: 23.0 mg/kg/injection, schedule: Q07DX003 (ip), vehicle: saline, higher = longer survival) was 87 % of control and the T/C (endpoint: median survival time, dose: 39.0 mg/kg/injection, schedule: Q01DX001 (sc), vehicle: saline, higher = longer survival) was 185 % of control. For the same compound, the T/C (endpoint: median survival time, dose: 39.0 mg/kg/injection, schedule: Q07DX003 (ip), vehicle: saline, higher = longer survival) was 120 % of control, the T/C (endpoint: median survival time, dose: 65.0 mg/kg/injection, schedule: Q01DX001 (ip), vehicle: saline, higher = longer survival) was 34 % of control and the T/C (endpoint: median survival time, dose: 65.0 mg/kg/injection, schedule: Q01DX001 (sc), vehicle: saline, higher = longer survival) was 191 % of control. The T/C (endpoint: median survival time, dose: 108.0 mg/kg/injection, schedule: Q01DX001 (ip), vehicle: saline, higher = longer survival) was 25 % of control and the T/C (endpoint: median survival time, dose: 108.0 mg/kg/injection, schedule: Q01DX001 (sc), vehicle: saline, higher = longer survival) was 166 % of control.
`NC(C=O)C(O)C(O)C(O)CO` (stereo unspecified) was tested, and the T/C (endpoint: mean tumor weight (est.), dose: 750.0 mg/kg/injection, schedule: Q01DX011 (ip), vehicle: saline, higher = larger tumour) was 77 % of control, the T/C (endpoint: mean tumor weight (est.), dose: 1500.0 mg/kg/injection, schedule: Q01DX011 (ip), vehicle: saline, higher = larger tumour) was 93 % of control and the T/C (endpoint: mean tumor weight (est.), dose: 3000.0 mg/kg/injection, schedule: Q01DX011 (ip), vehicle: saline, higher = larger tumour) was 89 % of control. The T/C (endpoint: median survival time, dose: 1500.0 mg/kg/injection, schedule: Q01DX011 (ip), vehicle: saline, higher = longer survival) was 104 % of control and the T/C (endpoint: median survival time, dose: 3000.0 mg/kg/injection, schedule: Q01DX011 (ip), vehicle: saline, higher = longer survival) was 104 % of control.
For `OCC1OC(n2cnc3c(=S)nc[nH]c32)C(O)C1O` (stereo unspecified), the T/C (endpoint: mean tumor weight (est.), dose: 1.56 mg/kg/injection, schedule: Q01DX011 (ip), vehicle: other, higher = larger tumour) was 100 % of control, the T/C (endpoint: mean tumor weight (est.), dose: 3.12 mg/kg/injection, schedule: Q01DX011 (ip), vehicle: other, higher = larger tumour) was 78 % of control and the T/C (endpoint: mean tumor weight (est.), dose: 25.0 mg/kg/injection, schedule: Q01DX011 (ip), vehicle: other, higher = larger tumour) was 96 % of control. The T/C (endpoint: median survival time, dose: 0.78 mg/kg/injection, schedule: Q01DX011 (ip), vehicle: other, higher = longer survival) was 108 % of control, the T/C (endpoint: median survival time, dose: 1.56 mg/kg/injection, schedule: Q01DX011 (ip), vehicle: other, higher = longer survival) was 114 % of control and 120 % of control and the T/C (endpoint: median survival time, dose: 3.12 mg/kg/injection, schedule: Q01DX011 (ip), vehicle: other, higher = longer survival) was 95 % of control. The T/C (endpoint: median survival time, dose: 6.25 mg/kg/injection, schedule: Q01DX011 (ip), vehicle: other, higher = longer survival) was 110 % of control and the T/C (endpoint: median survival time, dose: 12.5 mg/kg/injection, schedule: Q01DX011 (ip), vehicle: other, higher = longer survival) was 112 % of control.
`Oc1c(Cl)cc(Cl)c2cccnc12` was tested, and the T/C (endpoint: mean tumor weight, dose: 6.25 mg/kg/injection, schedule: Q01DX011 (ip), vehicle: saline with Tween-80, higher = larger tumour) was 60 % of control, the T/C (endpoint: mean tumor weight, dose: 12.5 mg/kg/injection, schedule: Q01DX011 (ip), vehicle: saline with Tween-80, higher = larger tumour) was 19 % of control and the T/C (endpoint: median survival time, dose: 6.25 mg/kg/injection, schedule: Q01DX011 (ip), vehicle: saline with Tween-80, higher = longer survival) was 122 % of control.
For `O=C(Nc1ccc(C2=NCCN2)cc1)c1ccc(C(=O)Nc2ccc(C3=NCCN3)cc2)c(Cl)c1`, the T/C (endpoint: median survival time, dose: 4.0 mg/kg/injection, schedule: Q01DX011 (ip), vehicle: water, higher = longer survival) was 90 % of control.
